Where “and” joins values, the source holds several entries; their conditions need not be identical. Equal entries are not always repeated. Where two headings read alike, the source gives them in different places. Marks after values point to notes of the source that are not given here.
Tests used:
[1] = cited from earlier work; for Cmax: maximal plasma concentration after a single daily-recommended dose, human; for Unbound fraction: unbound to plasma protein; for Unbound concentration: unbound plasma concentration, identified or calculated from Cmax and unbound fraction
[2] = system: desmoglein-1 (DSG1); test: 3D micro-epidermis model (EpiScreen): desmoglein-1 immunostaining; type: cell-based, human; conditions: for activation at 0.01 µM: 10 nM, read-out: DSG 10 nM; for DSG-1 expression: Table 1 summary
Experimental: (§1) To assess the effects of such therapy molecules on the epidermis, keratinocytes were grown in the presence of kinase inhibitors during 3 days with high calcium concentration to induce keratinocyte differentiation and generate a 3D-stratified differentiated epidermis. Drug impact on the epidermis development was assessed via different keratinocyte markers including: • Ki-67, an universally expressed protein among proliferating cells and absent in the quiescent cells; • Filaggrin, a filament-associated protein that binds to keratin fibers and is a marker of terminal differentiation; • Desmoglein-1, a component of desmosomes and differentiation marker expressed in all epidermal layer above the basal layer; and • Involucrin, an early differentiation marker expressed in the spinous and granular layers and a protein precursor of the epidermal cornified envelope.
(§2) Human epidermal keratinocytes cells (HPEKs) from a juvenile donor (CellnTec, Switzerland) are cultured in flasks in proliferation medium. Keratinocytes are seeded at passage 6 into EpiScreen™ (Abzena, Cambridge, UK) plates containing collagen 1 coated disc micropatterns (CYTOO, Grenoble, France). Four hours later, unattached cells are washed off and a high calcium medium is added to induce keratinocytes differentiation. The day after, keratinocytes are treated with screening compounds, and Trichostatin A is added at 0.3 μM as an internal positive control. After three days of treatment, micro-epidermises are fixed with a formalin solution 10% for 30 minutes, then permeabilized with 0.1% Triton. Several immunostainings are performed: actin (Acti-Stain 555, PHDH1, Cytoskeleton), nuclei (Hoechst, H3570, Invitrogen), and one biomarker of interest per well either anti-involucrin (HPA055211, Sigma), anti-filaggrin (HPA030189, Sigma) or anti-desmoglein-1 (HPA022128, Sigma). Antibodies are added overnight at 4° C. before staining with secondary antibody, anti-rabbit 488 (711-545-152, Jackson) for 2 hours at room temperature.
(§3) Images of each well are acquired with the Operetta HCS platform (Perkin Elmer, Waltham, MA, USA) using a ×10 objective in confocal mode in eight z-planes from 2 μm to 44 μm in steps of 6 μm in each of the 3 channels: actin, nuclei, and one biomarker of interest. The first step of the image analysis consists in detecting micro-epidermis structures on the first z-plane by segmenting the actin staining. Micro-epidermis structures are validated based on several area and roundness min and max criteria. Then, the area of each biomarker staining is measured inside the valid micro-epidermis masks through each z-plane. For all homogeneous biomarker staining, their intensity through the different planes is measured.
(§4) The actin network of each micro-epidermis is analyzed in each z-plane in order to determine the average 3D structure edges. The biomarker intensity is measured in each z-plane for each structure, and then averaged with the other results generated in the same well. Based on the data generated in the two previous steps, an average 3D reconstruction image is generated. It consists of a meshwork that delimits the structure edges, and a color scaled volume that corresponds to the biomarkers distribution and expression.
The effect of 8 oncology molecules, selected from first generation EGFRi and pan-kinase inhibitors which mostly target VEGFR and second and third generation therapies targeting main mutations relating to first generation treatment resistance, were assessed in vitro using a 3D micro-epidermis model. The drug incubation concentrations (3, 10, 30, 100 nM) were selected to reflect the clinically relevant (unbound) drug exposures (Table 2). The drug impact was assessed by analysis of tissue size and keratinocyte proliferation using Ki-67 staining and keratinocyte differentiation using filaggrin, desmoglein-1 and involucrin staining. […]

[3] = system: filaggrin (FLG); test: 3D micro-epidermis model (EpiScreen): filaggrin immunostaining; type: cell-based, human; conditions: for FLG expression: Table 1 summary;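 as to all read-outs here: human primary epidermal keratinocytes differentiated in high calcium into 3D micro-epidermises, compound-treated for three days, imaged by confocal high-content microscopy, filaggrin staining intensity quantified within actin-segmented structures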
[4] = most frequent cutaneous adverse reaction reported by the FDA Adverse Event Reporting System; cited from earlier work
[5] = system: Human epidermal keratinocytes cells (HPEKs), 3D micro-epidermis; test: 3D micro-epidermis model (EpiScreen): epidermis size, toxicity, dose response, classification; type: cell-based; conditions: for effect on desmoglein-1, involucrin and filaggrin expression (dose dependence): 3, 10, 30 nM; for Dose in response: variation of protein expression at 3, 10, 30 nM (EGFRi) or 3, 10, 30, 100 nM (VEGFRi); for Dose in response / Dose/response: markers in brackets; for Dose/response: supplementary table, per run (1st or 2nd Run);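 as to all read-outs here: keratinocytes on micropatterned discs in high-calcium medium, drug exposure for three days, then fixation and confocal high-content imaging of actin, nuclei and a marker, vehicle DMSO-matched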
[6] = system: involucrin (IVL); test: 3D micro-epidermis model (EpiScreen): involucrin immunostaining; type: cell-based, human; conditions: for IVL expression: Table 1 summary
Experimental: as §1, §2, §3, §4
The effect of 8 oncology molecules, selected from first generation EGFRi and pan-kinase inhibitors which mostly target VEGFR and second and third generation therapies targeting main mutations relating to first generation treatment resistance, were assessed in vitro using a 3D micro-epidermis model. […] The drug impact was assessed by analysis of tissue size and keratinocyte proliferation using Ki-67 staining and keratinocyte differentiation using filaggrin, desmoglein-1 and involucrin staining.
Size of the epidermis and the expression of the protein junction desmoglein-1 (DSG1), involucrin (IVL) and filaggrin (FLG) was assessed by immunostaining and compared to untreated control. […]

[7] = system: desmoglein-1 (DSG1); test: 3D micro-epidermis model (EpiScreen): desmoglein-1 immunostaining; type: cell-based, human; conditions: 10 μM; supplementary data; Tox = toxic
[8] = system: SkinEthic Reconstructed Human Epidermis (RHE); test: Skin barrier function: trans-epidermal water loss (TEWL) on reconstructed human epidermis; type: cell-based; conditions: SDS 0.5% topical
Experimental: The effect of drugs on the skin barrier function was assessed by measuring trans-epidermal water loss (TEWL) rates on SkinEthicTM Reconstructed Human Epidermis (RHE) model (Episkin, Lyon, France) using Tewitro® TW 24 (Courage+Khazaka electronic GmbH, Köln, Germany). This instrument allows 24 simultaneous measurements on RHE. TEWL was analyzed at 33° C. in an incubator. […] Petrolatum, a highly hydrophobic hydrocarbon, water-repelling and insoluble in water was used to block water evaporation at the RHE surface (negative control). […] DMSO was used in the same proportion in the vehicle. SkinEthicTM RHE (Episkin, Lyon, France), is an in vitro reconstructed human epidermis from normal human keratinocytes cultured on an inert polycarbonate filter at the air-liquid interface, in a chemically defined medium. This model exists at different stages of maturity. This model is histologically similar to in vivo human epidermis. See […].com/SkinEthic%20RHE. The Tewitro® TW 24 is a device that measures water evaporation from cultured tissue sets (wells in a plate with medium) in up to 24 wells simultaneously. See https://www.courage-[…].

[9] = Homo sapiens, 72 h, supplementary data
[10] = supplementary data, two runs, Tox = toxic
[11] = Homo sapiens, 72 h, 10 nM, supplementary data, two runs, read-out: FLG 10 nM
[12] = 100 nM, supplementary data, two runs, Tox = toxic
[13] = Table 1 summary of drug effect on epidermis
[14] = Table 1 summary, pro-differentiation / pro-proliferation
[15] = Table 3, 30 nM (EGFRi) or 100 nM (VEGFRi), 3 days, vs untreated control, superscript = significance footnote
[16] = Table 3, pro-proliferation or pro-differentiation
[17] = concentration (afatinib 3, 10, 30 nM; pan-kinase inhibitors 100 nM)

Molecule | Cmax [1] | Unbound fraction [1] | activation at 0.01 µM [2, 9] | FLG 10 μM [3, 10] | activation at 0.01 µM [3, 11] | Major Skin Effect [4] | Toxicity at 1 μM ([5]; 1 μM, micro-epidermis) | IVL 10 nM ([6]; supplementary data, two runs) | IVL 10 μM [6, 10] | DSG 10 μM [7] | Unbound concentration [1] | DSG-1 expression [2] | FLG expression [3] | Epidermis size [5, 13] | Classification [5, 14] | Epidermis size [5, 15] | Classification [5, 16] | Dose in response ([5]; Table 3) | Dose/response [5] | IVL expression [6] | further results
CCN(CC)CCNC(=O)c1c(C)[nH]c(/C=C2\C(=O)Nc3ccc(F)cc32)c1C [Sunitinib] | 75 nM | 5%* | 15% | 101% | -5% | Palmoplantar | No | 0% | 24% | 27% | – | – | – | – | – | – | – | – | – | – | micro-epidermis size / epidermal volume ([5]; concentration (afatinib 3-30 nM; pan-kinase inhibitors up to 100 nM)): no effect
COc1cc2ncnc(Nc3ccc(F)c(Cl)c3)c2cc1NC(=O)/C=C/CN1CCCCC1 [Dacomitinib] | 178 nM | 0.24% | 32% | – | 25% | Rash | Yes | 31% | – | – | 0.42 nM and 0.425* nM | Increased | Increased | Decreased | Pro-differentiation | Unchanged^4 | Pro- | Yes | Yes (DSG, IVL, | Increased | DSG 3 nM ([2]; supplementary data): 10.00%; DSG 30 nM ([2]; supplementary data): 54%; DSG 100 nM ([2]; 100 nM, supplementary data, Tox = toxic): Tox; FLG 3 nM ([3]; supplementary data): 8%; FLG 30 nM ([3]; supplementary data): 31%; FLG 100 nM [3, 12]: Tox; effect on desmoglein-1, involucrin and filaggrin expression (dose dependence) [5]: dose-dependent manner; IVL 3 nM ([6]; supplementary data): 15%; IVL 30 nM ([6]; supplementary data): 60%; IVL 100 nM [6, 12]: Tox
CS(=O)(=O)CCNCc1ccc(-c2ccc3ncnc(Nc4ccc(OCc5cccc(F)c5)c(Cl)c4)c3c2)o1 [Lapatinib] | 516 nM | 1%* | 9.6% | – | 9% | Rash | – | 14% | – | – | 5.16* nM | Increased | Increased | Decreased | Pro-differentiation | Unchanged^4 | Pro- | Yes | Yes (DSG, IVL, | Increased | DSG 3 nM ([2]; supplementary data): −6.20%; DSG 30 nM ([2]; supplementary data): 29%; activation at 0.1 µM ([2]; Homo sapiens, 72 h, 100 nM, supplementary data, Tox = toxic, read-out: DSG 100 nM): 47%; FLG 3 nM ([3]; supplementary data): 7%; FLG 30 nM ([3]; supplementary data): 20%; activation at 0.1 µM ([3]; Homo sapiens, 72 h, 100 nM, supplementary data, two runs, Tox = toxic, read-out: FLG 100 nM): 18%; Toxicity at 1 μM [5]: Yes; effect on desmoglein-1, involucrin and filaggrin expression (dose dependence) [5]: dose-dependent manner; IVL 3 nM ([6]; supplementary data): 17%; IVL 30 nM ([6]; supplementary data): 30%; activation at 0.1 µM ([6]; Homo sapiens, 72 h, 100 nM, supplementary data, two runs, Tox = toxic): 48%
sodium dodecyl sulfoxide [SDS] | – | – | – | – | – | – | – | – | – | – | – | – | – | – | – | – | – | – | – | – | increase of the TEWL rate ([8]; day 1): 98%; increase of the TEWL rate ([8]; day 2, afatinib 100 nM in the media): 77%; increase of the TEWL rate ([8]; day 5, afatinib 100 nM in the media): 58%; increase of the TEWL rate ([8]; day 7, afatinib 100 nM in the media): non-significant increase
CNC(=O)c1cc(Oc2ccc(NC(=O)Nc3ccc(Cl)c(C(F)(F)F)c3)cc2)ccn1 [Sorafenib] | 8180 nM | 0.29% | -8% | Tox | – | Rash | Yes | 6% | Tox | Tox | – | Unchanged | Decreased | Decreased | Pro-proliferation | Decreased^2 | Pro- | No | No | Unchanged | desmoglein-1 expression [2, 17]: do not impact; activation at 0.01 µM ([3]; Homo sapiens, 72 h, read-out: FLG 10 nM, 10 nM, supplementary data, two runs): -22%; involucrin expression [6, 17]: do not impact
